Active and inactive are the calls of the source. The calls are words filed in the database; no cut-off is given here.
How the values were obtained:
Escherichia coli [1] = assay: Antimicrobial activity against Escherichia coli at 1000 ug by antibiotic disk assay; assay type: functional; conditions: read-out: Diameter of inhibition zone
Ipomoea [2] = assay: Phytotoxicity against Ipomoea sp. assessed as leaf necrotic area at 100 ug by detached leaf assay; assay type: functional
Escherichia coli [3] = assay: Antimicrobial activity against Escherichia coli at 500 ug by antibiotic disk assay; assay type: functional; conditions: read-out: Diameter of inhibition zone
Sorghum halepense [4] = assay: Phytotoxicity against Johnson grass assessed as leaf necrotic area at 25 ug by detached leaf assay; assay type: functional
Sorghum bicolor [5] = assay: Phytotoxicity against Sorghum bicolor assessed as inhibition of root growth at 1000 ug after 24 hrs root growth assay; assay type: functional, organism-based
Colletotrichum acutatum [6] = assay: Antimicrobial activity against Colletotrichum acutatum at 500 ug by antibiotic disk assay; assay type: functional; conditions: read-out: Diameter of inhibition zone
Sida spinosa [7] = assay: Phytotoxicity against Prickly sida assessed as leaf necrotic area at 25 ug by detached leaf assay; assay type: functional
[8] = system: Pectobacterium carotovorum; assay: Antimicrobial activity against Erwinia carotovora at 1000 ug by antibiotic disk assay; assay type: functional; conditions: read-out: Diameter of inhibition zone
Datura stramonium [9] = assay: Phytotoxicity against Jimsonweed assessed as leaf necrotic area at 25 ug by detached leaf assay; assay type: functional
Sorghum bicolor [10] = assay: Phytotoxicity against Sorghum bicolor assessed as leaf necrotic area at 50 ug by detached leaf assay; assay type: functional
Sida spinosa [11] = assay: Phytotoxicity against Prickly sida assessed as leaf necrotic area at 100 ug by detached leaf assay; assay type: functional
Nasturtium officinale [12] = assay: Phytotoxicity against watercress assessed as leaf necrotic area at 50 ug by detached leaf assay; assay type: functional
Sida spinosa [13] = assay: Phytotoxicity against Prickly sida assessed as leaf necrotic area at 50 ug by detached leaf assay; assay type: functional
Chenopodium album [14] = assay: Phytotoxicity against Lamb's quarters assessed as electrolyte leakage at 500 to 1000 ug/ml; assay type: functional, organism-based
Sorghum halepense [15] = assay: Phytotoxicity against Johnson grass assessed as leaf necrotic area at 100 ug by detached leaf assay; assay type: functional
Datura stramonium [16] = assay: Phytotoxicity against Jimsonweed assessed as leaf necrotic area at 50 ug by detached leaf assay; assay type: functional
Chenopodium album [17] = assay: Phytotoxicity against Lamb's quarters assessed as leaf necrotic area at 25 ug by detached leaf assay; assay type: functional
Poa nemoralis [18] = assay: Phytotoxicity against bent grass assessed as leaf necrotic area at 25 ug by detached leaf assay; assay type: functional
Senna obtusifolia [19] = assay: Phytotoxicity against Sicklepod assessed as leaf necrotic area at 100 ug by detached leaf assay; assay type: functional
[20] = system: Agrobacterium tumefaciens; assay: Antimicrobial activity against Agrobacterium tumefaciens at 500 ug by antibiotic disk assay; assay type: functional; conditions: read-out: Diameter of inhibition zone
Ambrosia artemisiifolia [21] = assay: Phytotoxicity against rag weed assessed as leaf necrotic area at 50 ug by detached leaf assay; assay type: functional
Datura stramonium [22] = assay: Phytotoxicity against Jimsonweed assessed as leaf necrotic area at 100 ug by detached leaf assay; assay type: functional
Ipomoea [23] = assay: Phytotoxicity against Ipomoea sp. assessed as leaf necrotic area at 25 ug by detached leaf assay; assay type: functional
Nasturtium officinale [24] = assay: Phytotoxicity against watercress assessed as leaf necrotic area at 25 ug by detached leaf assay; assay type: functional
Ambrosia artemisiifolia [25] = assay: Phytotoxicity against rag weed assessed as leaf necrotic area at 100 ug by detached leaf assay; assay type: functional
Sorghum bicolor [26] = assay: Phytotoxicity against Sorghum bicolor assessed as leaf necrotic area at 100 ug by detached leaf assay; assay type: functional
Colletotrichum acutatum [27] = assay: Antimicrobial activity against Colletotrichum acutatum at 1000 ug by antibiotic disk assay; assay type: functional; conditions: read-out: Diameter of inhibition zone
Sorghum halepense [28] = assay: Phytotoxicity against Johnson grass assessed as leaf necrotic area at 50 ug by detached leaf assay; assay type: functional
Sorghum bicolor [29] = assay: Phytotoxicity against Sorghum bicolor assessed as leaf necrotic area at 25 ug by detached leaf assay; assay type: functional
Poa nemoralis [30] = assay: Phytotoxicity against bent grass assessed as leaf necrotic area at 50 ug by detached leaf assay; assay type: functional
Senna obtusifolia [31] = assay: Phytotoxicity against Sicklepod assessed as leaf necrotic area at 50 ug by detached leaf assay; assay type: functional
Penicillium chrysogenum [32] = assay: Antimicrobial activity against Penicillium notatum at 500 ug by antibiotic disk assay; assay type: functional; conditions: read-out: Diameter of inhibition zone
Aspergillus flavus [33] = assay: Antimicrobial activity against Aspergillus flavus at 500 ug by antibiotic disk assay; assay type: functional; conditions: read-out: Diameter of inhibition zone
Senna obtusifolia [34] = assay: Phytotoxicity against Sicklepod assessed as leaf necrotic area at 25 ug by detached leaf assay; assay type: functional
[35] = system: Pectobacterium carotovorum; assay: Antimicrobial activity against Erwinia carotovora at 500 ug by antibiotic disk assay; assay type: functional; conditions: read-out: Diameter of inhibition zone
Chenopodium album [36] = assay: Phytotoxicity against Lamb's quarters assessed as leaf necrotic area at 50 ug by detached leaf assay; assay type: functional
Aspergillus flavus [37] = assay: Antimicrobial activity against Aspergillus flavus at 1000 ug by antibiotic disk assay; assay type: functional; conditions: read-out: Diameter of inhibition zone
[38] = system: Curtobacterium flaccumfaciens; assay: Antimicrobial activity against Corynebacterium flaccumfaciens at 1000 ug by antibiotic disk assay; assay type: functional; conditions: read-out: Diameter of inhibition zone
[39] = system: Curtobacterium flaccumfaciens; assay: Antimicrobial activity against Corynebacterium flaccumfaciens at 500 ug by antibiotic disk assay; assay type: functional; conditions: read-out: Diameter of inhibition zone
Ipomoea [40] = assay: Phytotoxicity against Ipomoea sp. assessed as leaf necrotic area at 50 ug by detached leaf assay; assay type: functional
Ambrosia artemisiifolia [41] = assay: Phytotoxicity against rag weed assessed as leaf necrotic area at 25 ug by detached leaf assay; assay type: functional
Penicillium chrysogenum [42] = assay: Antimicrobial activity against Penicillium notatum at 1000 ug by antibiotic disk assay; assay type: functional; conditions: read-out: Diameter of inhibition zone
Nasturtium officinale [43] = assay: Phytotoxicity against Nasturtium officinale assessed as leaf necrotic area at 100 ug by detached leaf assay; assay type: functional
[44] = system: Agrobacterium tumefaciens; assay: Antimicrobial activity against Agrobacterium tumefaciens at 1000 ug by antibiotic disk assay; assay type: functional; conditions: read-out: Diameter of inhibition zone
Chenopodium album [45] = assay: Phytotoxicity against Lamb's quarters assessed as leaf necrotic area at 100 ug by detached leaf assay; assay type: functional
Nasturtium officinale [46] = assay: Phytotoxicity against watercress assessed as leaf necrotic area at 10 ug by detached leaf assay; assay type: functional
Sorghum halepense [47] = assay: Phytotoxicity against Johnson grass assessed as leaf necrotic area at 10 ug by detached leaf assay; assay type: functional
Chenopodium album [48] = assay: Phytotoxicity against Lamb's quarters assessed as leaf necrotic area at 10 ug by detached leaf assay; assay type: functional
Poa nemoralis [49] = assay: Phytotoxicity against bent grass assessed as leaf necrotic area at 10 ug by detached leaf assay; assay type: functional
Sida spinosa [50] = assay: Phytotoxicity against Prickly sida assessed as leaf necrotic area at 10 ug by detached leaf assay; assay type: functional
Sorghum bicolor [51] = assay: Phytotoxicity against Sorghum bicolor assessed as leaf necrotic area at 10 ug by detached leaf assay; assay type: functional
Ambrosia artemisiifolia [52] = assay: Phytotoxicity against rag weed assessed as leaf necrotic area at 10 ug by detached leaf assay; assay type: functional
Datura stramonium [53] = assay: Phytotoxicity against Jimsonweed assessed as leaf necrotic area at 10 ug by detached leaf assay; assay type: functional
Ipomoea [54] = assay: Phytotoxicity against Ipomoea sp. assessed as leaf necrotic area at 10 ug by detached leaf assay; assay type: functional
Senna obtusifolia [55] = assay: Phytotoxicity against Sicklepod assessed as leaf necrotic area at 10 ug by detached leaf assay; assay type: functional

CCC(C)c1occ2c(=O)c(C(=O)O)c(O)cc-2c1C (configuration not stated) [ASCOCHYTINE]
zone of inhibition at 1000 µg/disc (Escherichia coli [1]): 10 mm | Activity (Ipomoea [2]): 9 mm2 | zone of inhibition at 500 µg/disc (Escherichia coli [3]): 8 mm | Activity (Sorghum halepense [4]): 10 mm2 | Activity (Sorghum bicolor [5]): Active | zone of inhibition at 500 µg/disc (Colletotrichum acutatum [6]): 18 mm | Activity (Sida spinosa [7]): 6 mm2 | zone of inhibition at 1000 µg/disc [8]: 0 mm | Activity (Datura stramonium [9]): 11 mm2 | Activity (Sorghum bicolor [10]): 18 mm2 | Activity (Sida spinosa [11]): 35 mm2 | Activity (Nasturtium officinale [12]): 5 mm2 | Activity (Sida spinosa [13]): 20 mm2 | Activity (Chenopodium album [14]): Active | Activity (Sorghum halepense [15]): 24 mm2 | Activity (Datura stramonium [16]): 15 mm2 | Activity (Chenopodium album [17]): 5 mm2 | Activity (Poa nemoralis [18]): 7 mm2 | Activity (Senna obtusifolia [19]): 16 mm2 | zone of inhibition at 500 µg/disc [20]: 26 mm | Activity (Ambrosia artemisiifolia [21]): 5 mm2 | Activity (Datura stramonium [22]): 22 mm2 | Activity (Ipomoea [23]): 8 mm2 | Activity (Nasturtium officinale [24]): 2 mm2 | Activity (Ambrosia artemisiifolia [25]): 8 mm2 | Activity (Sorghum bicolor [26]): 28 mm2 | zone of inhibition at 1000 µg/disc (Colletotrichum acutatum [27]): 20 mm | Activity (Sorghum halepense [28]): 10 mm2 | Activity (Sorghum bicolor [29]): 12 mm2 | Activity (Poa nemoralis [30]): 8 mm2 | Activity (Senna obtusifolia [31]): 13 mm2 | zone of inhibition at 500 µg/disc (Penicillium chrysogenum [32]): 0 mm | zone of inhibition at 500 µg/disc (Aspergillus flavus [33]): 0 mm | Activity (Senna obtusifolia [34]): 9 mm2 | zone of inhibition at 500 µg/disc [35]: 0 mm | Activity (Chenopodium album [36]): 11 mm2 | zone of inhibition at 1000 µg/disc (Aspergillus flavus [37]): 0 mm | zone of inhibition at 1000 µg/disc [38]: 42 mm | zone of inhibition at 500 µg/disc [39]: 30 mm | Activity (Ipomoea [40]): 9 mm2 | Activity (Ambrosia artemisiifolia [41]): 5 mm2 | zone of inhibition at 1000 µg/disc (Penicillium chrysogenum [42]): 10 mm | Activity (Nasturtium officinale [43]): 20 mm2 | zone of inhibition at 1000 µg/disc [44]: 35 mm | Activity (Chenopodium album [45]): 19 mm2

CCC(C)c1oc(CC(C)O)cc(=O)c1C (configuration not stated) [HYALOPYRONE]
Activity (Ipomoea [2]): 8 mm2 | zone of inhibition at 500 µg/disc (Escherichia coli [3]): 0 mm | zone of inhibition at 500 µg/disc (Colletotrichum acutatum [6]): 16 mm | Activity (Sorghum bicolor [10]): 18 mm2 | Activity (Sida spinosa [11]): 13 mm2 | Activity (Nasturtium officinale [12]): 5 mm2 | Activity (Sida spinosa [13]): 7 mm2 | Activity (Sorghum halepense [15]): 15 mm2 | Activity (Datura stramonium [16]): 0 mm2 | Activity (Senna obtusifolia [19]): 4 mm2 | zone of inhibition at 500 µg/disc [20]: 0 mm | Activity (Ambrosia artemisiifolia [21]): 10 mm2 | Activity (Datura stramonium [22]): 3 mm2 | Activity (Ambrosia artemisiifolia [25]): 18 mm2 | Activity (Sorghum bicolor [26]): 23 mm2 | Activity (Sorghum halepense [28]): 11 mm2 | Activity (Poa nemoralis [30]): 6 mm2 | Activity (Senna obtusifolia [31]): 3 mm2 | zone of inhibition at 500 µg/disc (Penicillium chrysogenum [32]): 12 mm | zone of inhibition at 500 µg/disc (Aspergillus flavus [33]): 10 mm | zone of inhibition at 500 µg/disc [35]: 0 mm | Activity (Chenopodium album [36]): 4 mm2 | zone of inhibition at 500 µg/disc [39]: 12 mm | Activity (Ipomoea [40]): 5 mm2 | Activity (Nasturtium officinale [43]): 7 mm2 | Activity (Chenopodium album [45]): 5 mm2

C[C@H]1OC(=O)/C=C\C(=O)/C=C/[C@H]2O[C@@H]12 [PYRENOLIDE A]
Activity (Nasturtium officinale [46]): 0 mm2 | zone of inhibition at 1000 µg/disc (Escherichia coli [1]): 0 mm | zone of inhibition at 500 µg/disc (Escherichia coli [3]): 0 mm | Activity (Sorghum halepense [47]): 3 mm2 | Activity (Sorghum halepense [4]): 7 mm2 | Activity (Chenopodium album [48]): 2 mm2 | Activity (Poa nemoralis [49]): 0 mm2 | Activity (Sorghum bicolor [5]): Active | zone of inhibition at 500 µg/disc (Colletotrichum acutatum [6]): 21 mm | Activity (Sida spinosa [7]): 0 mm2 | zone of inhibition at 1000 µg/disc [8]: 0 mm | Activity (Datura stramonium [9]): 0 mm2 | Activity (Sorghum bicolor [10]): 10 mm2 | Activity (Nasturtium officinale [12]): 1 mm2 | Activity (Sida spinosa [13]): 4 mm2 | Activity (Chenopodium album [14]): Active | Activity (Datura stramonium [16]): 2 mm2 | Activity (Chenopodium album [17]): 5 mm2 | Activity (Poa nemoralis [18]): 0 mm2 | zone of inhibition at 500 µg/disc [20]: 4 mm | Activity (Ambrosia artemisiifolia [21]): 6 mm2 | Activity (Sida spinosa [50]): 0 mm2 | Activity (Ipomoea [23]): 0 mm2 | Activity (Nasturtium officinale [24]): 0 mm2 | zone of inhibition at 1000 µg/disc (Colletotrichum acutatum [27]): 32 mm | Activity (Sorghum halepense [28]): 18 mm2 | Activity (Sorghum bicolor [29]): 8 mm2 | Activity (Sorghum bicolor [51]): 2 mm2 | Activity (Poa nemoralis [30]): 0 mm2 | Activity (Senna obtusifolia [31]): 2 mm2 | Activity (Ambrosia artemisiifolia [52]): 0 mm2 | zone of inhibition at 500 µg/disc (Penicillium chrysogenum [32]): 16 mm | zone of inhibition at 500 µg/disc (Aspergillus flavus [33]): 0 mm | Activity (Senna obtusifolia [34]): 0 mm2 | zone of inhibition at 500 µg/disc [35]: 0 mm | Activity (Chenopodium album [36]): 13 mm2 | zone of inhibition at 1000 µg/disc (Aspergillus flavus [37]): 0 mm | Activity (Datura stramonium [53]): 0 mm2 | zone of inhibition at 1000 µg/disc [38]: 34 mm | zone of inhibition at 500 µg/disc [39]: 22 mm | Activity (Ipomoea [40]): 3 mm2 | Activity (Ambrosia artemisiifolia [41]): 3 mm2 | zone of inhibition at 1000 µg/disc (Penicillium chrysogenum [42]): 22 mm | zone of inhibition at 1000 µg/disc [44]: 22 mm | Activity (Ipomoea [54]): 0 mm2 | Activity (Senna obtusifolia [55]): 0 mm2

From ChEMBL document CHEMBL1159020, “Phytotoxins of Ascochyta hyalospora, Causal Agent of Lambsquarters Leaf Spot” (1992)
